# Data from patent US20240139280A1, “USE OF HIF-1-ALPHA INHIBITORS IN CANCER IMMUNOTHERAPY” (ONCOC4, INC., priority 2021, published 2024).
# System: E0771 tumor microenvironment
# Experiment: Flow cytometry of dissociated E0771 tumors (tumor cells, myeloid cells, TILs)
# Assay type: in vivo, C57BL/6 mice
# Procedure: FIGS. 6A-D. E0771 cells (0.5×10^6) were orthotopically transplanted into C57BL/6 mice (day 0). The mice received treatment with vehicle, echinomycin (LEM, 0.25 mg/kg/dose), anti-CTLA-4 mAb (9D9, 0.2 mg/mouse/injection), or their combination on days 6, 8, 10, and 12, and were euthanized on day 14. The tumors were dissociated and analyzed by flow cytometry to quantitate PD-L1 expression on tumor cells (gated on Singlets/Live_CD45^−) (FIG. 6A), M-MDSCs (gated on Singlets/Live_CD45^+/CD11b^+CD11c^−/Ly6ChighLy6G^−) (FIG. 6B), PMN-MDSCs (gated on Singlets/Live_CD45^+/CD11b^+CD11c^−/Ly6CInt.Ly6G^+) (FIG. 6C), or CD11c^+TAMs (gated on Singlets/Live_CD45^+/CD11b^+CD11c^+) (FIG. 6D). Upper panels show representative histograms of PD-L1 staining and lower panels show aggregate data from individual mice, pooled from three independent experiments (n=5 mice/group/experiment). Data shown are mean±SEM of PD-L1 MFI. Statistics were determined by one-way ANOVA with Sidak's multiple comparisons test (FIG. 6A), or by two-tailed unpaired t-tests (FIGS. 6B-D). FIGS. 6E-G. Echinomycin treatment reprograms the TME. Dissociated E0771 tumors were obtained from C57BL/6 mice treated with different therapies (n=5 mice/group), as described in FIGS. 6A-D. Single cell suspension were cultured for 4 hours with PMA+ionomycin+Golgi stop, surface stained, and then intracellular stained for IFNγ (for quantitation of Th1 and Tc1 cells) or surface stained for PD-L1. FIG. 6E. IFNγ expression in CD8+tumor-infiltrating lymphocytes (TILs) (gated on Singlets/Live_CD45^+/CD3^+/CD8^+CD4^−). […] FIG. 6F. IFNγ expression in the CD4^+ TILs (gated on Singlets/Live_CD45^+/CD3^+/CD8^−CD4^+). As in FIG. 6E, except that CD4 TIL were analyzed.
# FIG. 6G. MHCII expression on CD11c^+ TAMs (gated on Singlets/Live_CD45^+/CD11b^+CD11c^+).
# FIGS. 9A-H. C57BL/6 mice received E0771 cells (0.5×10^6/mouse) on day 0 followed by treatment with vehicle, echinomycin (LEM, 0.25 mg/kg/dose), anti-CTLA-4 (9D9, 0.2 mg/mouse/dose), or 9D9+LEM on days 6, 8, and 10. On day 14, tumors were analyzed by flow cytometry. […] Data are presented as the ±SEM of each group (n=5/group), analyzed by unpaired two-tailed Student's t-test and are representative of two experiments. FIGS. 9A-B. Frequencies of TILs expressing PD-1. FIGS. 9C-D. Frequencies of annexin V^+ CD8 or CD4 TILs. FIGS. 9E-F. Frequencies of CD8 TILs expressing granzyme B or perforin. FIGS. 9G-H. Granzyme B and perforin expression in CD4 TILs. FIG. 9I. Effect of depletion of CD4, CD8, or NK cells on tumor growth inhibition by 9D9+LEM in syngeneic E0771 model. C57BL/6 mice received E0771 cells (0.5×10^6/mouse) on day 0. On day 5, the mice were randomized to receive depletory antibodies (500 μg of anti-CD4 (GK1.5), anti-CD8 (YTS169.4), anti-NK1.1 (PK136), or isotype ctrl). All groups received 9D9 (200 ug) on day 6, and LEM (250 ug/kg) on days 6, 8, and 10. Mice received supplemental dose of depletory antibodies (200 μg) on days 8 and 10. The mean±SEM tumor volumes are plotted on the y axes for each group (n=5/group) and analyzed by two-way ANOVA. Representative data shown for one of two experiments.
# [1] = with or without anti-CTLA-4 therapy
smiles,measurement,setting,value
"CSC1SC[C@H]2C(=O)N(C)[C@@H](C(C)C)C(=O)OC[C@@H](NC(=O)c3cnc4ccccc4n3)C(=O)N[C@@H](C)C(=O)N(C)[C@@H]1C(=O)N(C)[C@@H](C(C)C)C(=O)OC[C@@H](NC(=O)c1cnc3ccccc3n1)C(=O)N[C@@H](C)C(=O)N2C (stereo in doubt) [echinomycin, N,N′-(2,4,12,15,17,25-hexamethyl-11,24-bis(1-methylethyl)-27-(methylthio)-3,6,10,13,16,19,23,26-octaoxo-9,22-dioxa-28-thia-2,5,12,15,18,25-hexaazabicyclo(12.12.3)nonacosane-7,20-diyl)bis(2-quinoxalinecarboxamide)]",frequencies of tumor-infiltrated lymphocytes or myeloid subsets,E0771 tumors,did not significantly impact
same,apoptotic (annexin V) CD8 TILs,"compared to vehicle, echinomycin added to 9D9",appeared to repress this effect
same,PD-1 expression on CD8 TILs,"compared to vehicle, echinomycin added to anti-CTLA-4",reversed
same,PD-L1 expression on CD11b+CD11c+ double-positive cells,[1],significantly reduced PD-L1 expression
same,PD-L1 expression on PMN-MDSCs,[1],significantly reduced PD-L1 expression
same,PD-L1 expression on tumor-infiltrated monocytic MDSCs (M-MDSC),[1],significantly reduced PD-L1 expression
same,PD-L1 expression on tumor cells,"with or without anti-CTLA-4 therapy, LEM 0.25 mg/kg/dose",significantly reduced PD-L1 expression
